Key:
Type in all cases: cell-based
[1] = test system: SNB-19; assay: cells
[2] = test system: RPMI-8226; assay: cells
[3] = test system: TK-10; assay: cells
[4] = test system: SR; assay: cells
[5] = test system: MDA-MB-231/ATCC; assay: NCI 60 cell line antiproliferative screening (SRB), Breast cancer
[6] = test system: HCT-116; assay: cells
[7] = test system: NCI/ADR-RES; assay: cells
[8] = test system: SK-OV-3; assay: cells
[9] = test system: ACHN; assay: cells
[10] = test system: HS 578T; assay: cells
[11] = test system: 786-0; assay: cells
[12] = test system: NCI-H522; assay: cells
[13] = test system: A498; assay: cells
[14] = test system: SNB-75; assay: cells
[15] = test system: COLO-205; assay: cells
[16] = test system: SK-MEL-28; assay: cells
[17] = test system: NCI-H322M; assay: cells
[18] = test system: HOP-92; assay: cells
[19] = test system: SK-MEL-2; assay: cells
[20] = test system: T-47D; assay: cells
[21] = test system: HCT-15; assay: cells
[22] = test system: KM12; assay: cells
[23] = test system: SW-620; assay: cells
[24] = Homo sapiens, 5 doses, read-out: LC50 (the source's name)
[25] = Homo sapiens, read-out: growth inhibition % (GI%)

Compound: O=C(CSc1nc2ccccc2c(=O)n1-c1ccc(Cl)cc1)NN=Cc1ccc(Oc2ccc(Cl)cc2)cc1 [6d, N'-(4–(4-chlorophenoxy)benzylidene)-2-((3–(4-chlorophenyl)-4-oxo-3,4-dihydroquinazolin-2-yl)thio)acetohydrazide]
- GI50 ([1]; Homo sapiens, SNB-19): 3.36 µM
- inhibition at 10 µM ([1]; Homo sapiens, SNB-19, read-out: growth inhibition % (GI%)): 71.5%
- CC50 ([1]; Homo sapiens, SNB-19, 5 doses, read-out: LC50 (the source's name)): 53.2 µM
- TGI ([1]; SNB-19, 5 doses): 12.7 µM
- GI50 ([2]; Homo sapiens, RPMI-8226): 2.98 µM
- inhibition at 10 µM ([2]; Homo sapiens, RPMI-8226, read-out: growth inhibition % (GI%)): 75.3%
- CC50 ([2]; Homo sapiens, RPMI-8226, 5 doses, read-out: LC50 (the source's name)): > 100 µM
- TGI ([2]; RPMI-8226, 5 doses): 15.8 µM
- GI50 ([3]; Homo sapiens, TK-10): 5.97 µM
- inhibition at 10 µM ([3]; Homo sapiens, TK-10, read-out: growth inhibition % (GI%)): 60.3%
- CC50 ([3]; Homo sapiens, TK-10, 5 doses, read-out: LC50 (the source's name)): > 100 µM
- TGI ([3]; TK-10, 5 doses): 40.2 µM
- TGI ([4]; 5 doses): 6.86 µM
- GI50 ([4]; Homo sapiens): 1.84 µM
- CC50 [4, 24]: 31.9 µM
- inhibition at 10 µM [4, 25]: 67.1%
- GI50 ([5]; Homo sapiens, MDA-MB-231): 1.79 µM
- inhibition at 10 µM ([5]; Homo sapiens, MDA-MB-231, read-out: growth inhibition % (GI%)): 69.6%
- CC50 ([5]; Homo sapiens, MDA-MB-231/ATCC, 5 doses, read-out: LC50 (the source's name)): 8.51 µM
- TGI ([5]; MDA-MB-231/ATCC, 5 doses): 3.9 µM
- TGI ([6]; HCT-116, 5 doses): 3.74 µM
- GI50 ([6]; Homo sapiens, HCT-116): 1.55 µM
- inhibition at 10 µM ([6]; Homo sapiens, HCT-116, read-out: growth inhibition % (GI%)): > 100%
- CC50 ([6]; Homo sapiens, HCT-116, 5 doses, read-out: LC50 (the source's name)): 9.03 µM
- TGI ([7]; 5 doses): 3.56 µM
- GI50 ([7]; Homo sapiens): 1.64 µM
- CC50 [7, 24]: 7.76 µM
- inhibition at 10 µM [7, 25]: 84.3%
- GI50 ([8]; Homo sapiens, SK-OV-3): 3.26 µM
- inhibition at 10 µM ([8]; Homo sapiens, SK-OV-3, read-out: growth inhibition % (GI%)): 66.2%
- CC50 ([8]; Homo sapiens, SK-OV-3, 5 doses, read-out: LC50 (the source's name)): 49.4 µM
- TGI ([8]; SK-OV-3, 5 doses): 11.9 µM
- TGI ([9]; 5 doses): 15.2 µM
- GI50 ([9]; Homo sapiens): 4.36 µM
- CC50 [9, 24]: 39 µM
- inhibition at 10 µM [9, 25]: 36.5%
- TGI ([10]; HS 578T, 5 doses): 6.36 µM
- GI50 ([10]; Homo sapiens, Hs-578T): 2.17 µM
- inhibition at 10 µM ([10]; Homo sapiens, Hs-578T, read-out: growth inhibition % (GI%)): 78.6%
- CC50 ([10]; Homo sapiens, HS 578T, 5 doses, read-out: LC50 (the source's name)): > 100 µM
- TGI ([11]; 786-0, 5 doses): 6.41 µM
- GI50 ([11]; Homo sapiens, 786-0): 2.51 µM
- inhibition at 10 µM ([11]; Homo sapiens, 786-0, read-out: growth inhibition % (GI%)): > 100%
- CC50 ([11]; Homo sapiens, 786-0, 5 doses, read-out: LC50 (the source's name)): 26.5 µM
- GI50 ([12]; Homo sapiens, NCI-H522): 2.34 µM
- inhibition at 10 µM ([12]; Homo sapiens, NCI-H522, read-out: growth inhibition % (GI%)): 79.3%
- CC50 ([12]; Homo sapiens, NCI-H522, 5 doses, read-out: LC50 (the source's name)): 42.6 µM
- TGI ([12]; NCI-H522, 5 doses): 8.31 µM
- TGI ([13]; A498, 5 doses): 4.34 µM
- GI50 ([13]; Homo sapiens, A498): 1.94 µM
- inhibition at 10 µM ([13]; Homo sapiens, A498, read-out: growth inhibition % (GI%)): > 100%
- CC50 ([13]; Homo sapiens, A498, 5 doses, read-out: LC50 (the source's name)): 9.74 µM
- GI50 ([14]; Homo sapiens, SNB-75): 3.99 µM
- inhibition at 10 µM ([14]; Homo sapiens, SNB-75, read-out: growth inhibition % (GI%)): 42.1%
- CC50 ([14]; Homo sapiens, SNB-75, 5 doses, read-out: LC50 (the source's name)): > 100 µM
- TGI ([14]; SNB-75, 5 doses): 29.2 µM
- TGI ([15]; COLO 205, 5 doses): 8.74 µM
- GI50 ([15]; Homo sapiens, COLO 205): 2.79 µM
- inhibition at 10 µM ([15]; Homo sapiens, COLO 205, read-out: growth inhibition % (GI%)): 85.4%
- LC50 ([15]; Homo sapiens, COLO 205, 5 doses): 91.6 µM
- GI50 ([16]; Homo sapiens, SK-MEL-28): 1.51 µM
- inhibition at 10 µM ([16]; Homo sapiens, SK-MEL-28, read-out: growth inhibition % (GI%)): 96.8%
- CC50 ([16]; Homo sapiens, SK-MEL-28, 5 doses, read-out: LC50 (the source's name)): 6.01 µM
- TGI ([16]; SK-MEL-28, 5 doses): 3.01 µM
- TGI ([17]; 5 doses): 15.0 µM
- GI50 ([17]; Homo sapiens): 3.02 µM
- CC50 [17, 24]: 90.8 µM
- inhibition at 10 µM [17, 25]: < 15%
- TGI ([18]; HOP-92, 5 doses): 5.62 µM
- GI50 ([18]; Homo sapiens, HOP-92): 2.07 µM
- inhibition at 10 µM ([18]; Homo sapiens, HOP-92, read-out: growth inhibition % (GI%)): 97.4%
- LC50 (concentration killing 50% of cells) ([18]; Homo sapiens, HOP-92, 5 doses): 22.8 µM
- GI50 ([19]; Homo sapiens): 2.86 µM
- inhibition at 10 µM ([19]; Homo sapiens, SK-MEL-2, read-out: growth inhibition % (GI%)): 45.7%
- CC50 ([19]; Homo sapiens, SK-MEL-2, 5 doses, read-out: LC50 (the source's name)): 41.3 µM
- TGI ([19]; SK-MEL-2, 5 doses): 8.93 µM
- GI50 ([20]; Homo sapiens, T47D): 2.09 µM
- inhibition at 10 µM ([20]; Homo sapiens, T47D, read-out: growth inhibition % (GI%)): 69.9%
- CC50 ([20]; Homo sapiens, T47D, T-47D, 5 doses, read-out: LC50 (the source's name)): 49.5 µM
- TGI ([20]; T-47D, 5 doses): 5.76 µM
- TGI ([21]; HCT-15, 5 doses): 7.48 µM
- GI50 ([21]; Homo sapiens, HCT-15): 2.41 µM
- inhibition at 10 µM ([21]; Homo sapiens, HCT-15, read-out: growth inhibition % (GI%)): 89.6%
- LC50 (concentration causing 50% net cell kill) ([21]; Homo sapiens, HCT-15, 5 doses): 28.5 µM
- GI50 ([22]; Homo sapiens, KM12): 2.04 µM
- inhibition at 10 µM ([22]; Homo sapiens, KM12, read-out: growth inhibition % (GI%)): 82.6%
- CC50 ([22]; Homo sapiens, KM12, 5 doses, read-out: LC50 (the source's name)): 26.6 µM
- TGI ([22]; KM12, 5 doses): 5.0 µM
- GI50 ([23]; Homo sapiens, SW-620): 1.81 µM
- inhibition at 10 µM ([23]; Homo sapiens, SW-620, read-out: growth inhibition % (GI%)): 97.4%
- CC50 ([23]; Homo sapiens, SW-620, 5 doses, read-out: LC50 (the source's name)): 42.4 µM
- TGI ([23]; SW-620, 5 doses): 7.84 µM
